From patent publication US20150258052A1, “METHODS OF USING FEXARAMINE AND AGENTS THAT INCREASE SYMPATHETIC NERVOUS SYSTEM ACTIVITY TO PROMOTE BROWNING OF WHITE ADIPOSE TISSUE” (Salk Institute for Biological Studies, priority 2014, published 2015)

Key:
[1] = target: T1, human TGR5 (Homo sapiens, UniProt Q8TDU6); test: TGR5 cAMP-response element luciferase reporter in HEK293 cells; format: cell-based; details: HEK293 cells transfected with human TGR5, treated 5 hours
T1 construct: expressed in transfected cells; host or cells: HEK293
T1 sequence (Q8TDU6 1-330): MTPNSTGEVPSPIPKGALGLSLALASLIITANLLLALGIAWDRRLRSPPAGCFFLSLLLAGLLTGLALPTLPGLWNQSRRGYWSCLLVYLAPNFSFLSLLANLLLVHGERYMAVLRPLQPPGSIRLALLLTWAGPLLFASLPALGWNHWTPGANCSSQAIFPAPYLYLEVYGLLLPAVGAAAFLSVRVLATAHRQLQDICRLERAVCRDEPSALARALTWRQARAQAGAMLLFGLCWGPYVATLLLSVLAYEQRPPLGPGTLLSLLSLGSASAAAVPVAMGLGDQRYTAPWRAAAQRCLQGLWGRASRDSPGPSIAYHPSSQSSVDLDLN
Experimental: HEK293 cells were transfected with expression vectors for cAMP-response element luciferase, β-galactosidase and human TGR5. 24 hours after transfection, cells were treated with fexaramine or INT-777 (a TGR5 agonist)
at the indicated concentrations for 5 hours, prior to measurement of luciferase activity. Data represent the mean±SD. Statistical analysis was performed with the Student's t test. *p<0.05, **p<0.01.

[2] = system: FXR target gene expression; test: FXR target gene expression (qPCR) in intestine, liver and kidney after acute PO or IP fexaramine; format: in vivo, mice
Experimental: FIGS. 1A-1C are a comparative expression chart and two bar charts, respectively, illustrating increased levels of FXR target gene expression in the intestine relative to expression in the liver and kidney. 8 week-old mice were treated with vehicle or fexaramine (100 mg/kg) via oral (PO) or intraperitoneal (IP) injection for three days (FIGS. 1A-1B) or five days (FIG. 1C).
FXR target gene expression was analyzed by qPCR. Gene expression was normalized against a vehicle-treated group.
(§1) Data represent the mean±SD. Statistical analysis was performed with the Student's t test. *p<0.05, **p<0.01.
FIG. 1F is a bar chart illustrating that orally delivered Fexaramine is intestinally-restricted. Mice received vehicle or Fexaramine (100 mg/kg) via per os (PO) or intraperitoneal (IP) injection for 5 days. Expression of the FXR target gene SHP after PO or IP injection in selected tissues is shown.
Upon exploration of the in vivo effects of fexaramine (Fex) administration, it was discovered that due to ineffectual absorption, oral (PO) and intraperitoneal (IP) drug delivery produced very different effects (FIGS. 1D and 1E).

[3] = system: FXR-null mice; test: Fexaramine in HFD-fed FXR-null mice; format: in vivo; details: 100 mg/kg 5 weeks
Experimental: as §1

[4] = system: normal chow-fed mice; test: Chronic oral fexaramine in normal chow-fed mice; format: in vivo
Experimental: FIGS. 3A-3D are line graphs and a bar graph showing the effects of fexaramine administration in normal chow-fed mice. The mice were treated with vehicle or fexaramine (100 mg/kg) via PO for 5 weeks. Data represent the mean±STD. Statistical analysis as performed with the Student's t test (*p<0.05, **p<0.01).
To investigate the physiological effects of intestinal FXR activation by fexaramine, mice were subjected to chronic fexaramine (100 mg/kg Fex) PO treatment for 5 weeks.

[5] = system: brown adipose tissue (BAT); test: Energy expenditure and brown adipose tissue (BAT) analysis in Fex-treated DIO mice; format: in vivo
Experimental: Mice were fed HFD for 14 weeks and then administered vehicle or fexaramine (100 mg/kg) daily by oral administration for 5 weeks with HFD. Data represent the mean±STD. Statistical analysis was performed with the Student's t test (*p<0.05, **p<0.01).
FIG. 6M is a bar chart showing the effect of fexaramine on respiratory exchange ratio (RER). Mice were fed on HFD for 14 weeks, and then administered daily oral injections of vehicle or fexaramine (100 mg/kg) for 5 weeks with HFD.
FIG. 6N is a bar graph showing the effect of fexaramine administration on serum lactate concentrations. Mice were fed on HFD for 14 weeks, and then administered daily oral injections of vehicle or fexaramine (100 mg/kg) for 5 weeks with HFD. […] Data represent the mean±STD. Statistical analysis was performed with the Student's t test (*p<0.05, **p<0.01).
(FIG. 6E). […] Gene expression analysis confirmed the induction of ERRγ, PGC-1α, and PGC-1β, as well as a number of their target genes involved in thermogenesis, mitochondrial biogenesis, and fatty acid oxidation in BAT (FIG. 6G).

[6] = system: TGR5 null mice; test: Fexaramine in HFD-fed TGR5-null mice; format: in vivo; details: 100 mg/kg/day PO 5 weeks
Experimental: HFD-fed TGR5-null mice were treated with vehicle or fexaramine (100 mg/kg os daily for 5 weeks with HFD, n=10). (A) Ileal FXR target gene expressions (B) Serum BA levels (C) Fasting glucose levels (D) Glucose tolerance test (E) Core body temperature (F) Oxygen consumption rate (G) Carbon dioxide production (H) Gene expression in BAT (I) Body weight curve (J) Body composition by MRI (K) Insulin Tolerance Test (L) Hepatic gene expression (M) Hepatic TG levels (N) and Gene expression in soleus of TGR5 knockout mice with and without fexaramine treatment. Data represent the mean±SD. Statistical analysis was performed with the Student's t test. *p<0.05, **p<0.01.
To address this possibility, HFD-fed TGR5 null mice were chronically treated with Fex (100 mg/kg/day PO for 5 weeks). […] In particular, the anti-lipogenic effects of Fex in the liver appear to require TGR5 activation, as key hepatic lipogenic genes and liver triglyceride content were not affected by Fex treatment (FIGS. 11L, 11M).

[7] = PO, 100 mg/kg, listed as fexaramine
[8] = DIO mice, 100 mg/kg PO 5 weeks, listed as fexaramine, 100 mg/kg

For `COC(=O)/C=C/c1cccc(N(Cc2ccc(-c3ccc(N(C)C)cc3)cc2)C(=O)C2CCCCC2)c1` [Fex, fexaramine], the “TGR5 activation (luciferase activity)” value [1] was “does not activate”, the “TGR5 activation (luciferase activity)” value ([1]; listed as fexaramine) was “fails to activate TGR5” and the “induction of FXR target gene SHP in intestine” value ([2]; IP, 100 mg/kg for five days) was “robust induction”. For the same molecule, the “FXR target gene expression in liver, kidney and intestines” value ([2]; IP, 100 mg/kg, five days) was “increases FXR target gene expression in the liver and kidney, in addition to the intestines”, the “induction of SHP in liver and kidney” value ([2]; PO versus IP, 100 mg/kg for five days) was “only seen in liver and kidney after IP treatment” and the “FXR target gene expression (IBABP, OSTα, FGF15) in intestine” value ([2]; PO, 100 mg/kg) was “induced multiple FXR target genes in the intestine”. For the same molecule, the “FXR target gene expression in liver or kidney” value ([2]; PO, 100 mg/kg) was “failed to affect the expression of these genes in liver or kidney”, the “induction of FXR target gene SHP in intestine” value ([2]; PO, 100 mg/kg for five days) was “robust induction” and the “FXR target gene expression (IBABP, OSTα, FGF15) in intestine” value [2, 7] was “substantially enhances FXR target gene expression in the intestine”. The “FXR target gene expression in liver or kidney” value [2, 7] was “not in the liver or kidney”, the “Fex-induced changes in gene expression and improvements in metabolic homeostasis” value [3] was “abrogated” and the “weight gain, basal metabolic activity and glucose tolerance” value ([4]; chow-fed mice, 100 mg/kg PO 5 weeks) was “indistinguishable from vehicle-treated mice”. The glucose homeostasis ([4]; normal chow-fed mice, range of doses) was “no effects observed”, the “OXPHOS gene expression changes in inguinal, gonadal and brown adipose depots (RNA-sequencing)” value ([5]; DIO mice, 100 mg/kg PO 5 weeks) was “selectively enhance OXPHOS activity only in BAT” and the “PKA activity in BAT” value ([5]; DIO mice, 100 mg/kg PO 5 weeks) was “increased PKA activity”. The “accumulation of lipid vesicles in BAT (histology)” value ([5]; DIO mice, 100 mg/kg PO 5 weeks) was “markedly reduced”, the “ambulatory counts (activity)” value ([5]; DIO mice, 100 mg/kg PO 5 weeks) was “more active than control mice” and the “carbon dioxide production (VCO2)” value ([5]; DIO mice, 100 mg/kg PO 5 weeks) was “exhaled more carbon dioxide”. The “gene expression of ERRγ, PGC-1α, PGC-1β and target genes in BAT” value ([5]; DIO mice, 100 mg/kg PO 5 weeks) was “induction”, the “oxygen consumption (VO2)” value ([5]; DIO mice, 100 mg/kg PO 5 weeks) was “consistently higher oxygen consumption” and the “phosphorylation level of p38 in BAT” value ([5]; DIO mice, 100 mg/kg PO 5 weeks) was “increased the phosphorylation level of p38”. The serum lactate levels ([5]; DIO mice, 100 mg/kg PO 5 weeks, 100 mg/kg) was “significantly reduced”, the “respiratory exchange ratio (RER)” value [5, 8] was “No changes were observed” and the serum lactate levels [5, 8] was “significantly decreased”. The food intake ([5]; DIO mice, first week of treatment) was “not attributable to difference in food intake”, the “DIO2 (downstream target of TGR5) in BAT” value ([5]; oral Fex) was “induce DIO2” and the “FXR target genes in ileum including FGF15” value [6] was “induced multiple FXR target genes”. The “core body temperature and metabolic rate” value [6] was “somewhat blunted increases”, the “fasting glucose levels and glucose tolerance” value [6] was “moderate improvements” and the “key hepatic lipogenic genes and liver triglyceride content” value [6] was “not affected”. The “serum BA levels” value [6] was “lowered serum BA levels” and the “weight gain or insulin sensitivity” value [6] was “no significant changes”.
